Each structure is given as a SMILES string.

This assay deals with HCT116 colorectal cancer cells. Put plainly: Cisplatin sensitization assay (96 h MTS cell viability).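 Note: compound concentration needed to lower the IC50 of Cisplatin alone by a set fold.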 The note with it: Cisplatin sensitization value. In kind it is cell-based. Summed up:
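HCT116 cells were dosed simultaneously with compound and cisplatin as a full matrix of 2-fold serial dilutions from 10 μM top final concentration. Incubation was 96 h at 37° C., 5% CO2, followed by 1 h with MTS reagent for the viability read-out. Sensitization values were binned into +++, ++ and + categories.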
With `Nc1nn2cc(F)cnc2c1C(=O)Nc1cnccc1N1CCC(S(=O)(=O)C2COC2)CC1` [I-N-200, 2-amino-6-fluoro-N-(4-(4-(oxetan-3-ylsulfonyl)piperidin-1-yl)pyridin-3-yl)pyrazolo[1,5-a]pyrimidine-3-carboxamide], the “Cisplatin Sensitization Assay” value is recorded as “+++ (Compounds with a Cisplatin sensitization value of <0.02 μM are marked with “+++.”)”.

Turning to `Cn1nncc1-c1ccncc1NC(=O)c1c(N)nn2cc(F)cnc12` [I-C-72, 2-amino-6-fluoro-N-(4-(1-methyl-1H-1,2,3-triazol-5-yl)pyridin-3-yl)pyrazolo[1,5-a]pyrimidine-3-carboxamide], the “Cisplatin Sensitization Assay” value was “+++ (Compounds with a Cisplatin sensitization value of <0.02 μM are marked with “+++.”)”.

Consider `Nc1nn2cc(F)cnc2c1C(=O)Nc1cncc(F)c1N1CCN2C(=O)CCC2C1` (centres unmarked) [I-N-163, 2-amino-6-fluoro-N-(5-fluoro-4-(6-oxohexahydropyrrolo[1,2-a]pyrazin-2(1H)-yl)pyridin-3-yl)pyrazolo[1,5-a]pyrimidine-3-carboxamide], for which the “Cisplatin Sensitization Assay” value is “+++ (Compounds with a Cisplatin sensitization value of <0.02 μM are marked with “+++.”)”.

Regarding `CNc1cc(OC)c(NC(=O)c2c(N)nn3cc(F)cnc23)cn1` [I-O-90, 2-amino-6-fluoro-N-(4-methoxy-6-(methylamino)pyridin-3-yl)pyrazolo[1,5-a]pyrimidine-3-carboxamide], the “Cisplatin Sensitization Assay” value was “+ (Compounds with a Cisplatin sensitization value >0.2 μM but <5 μM are marked with “+.”)”.

Consider `Nc1nn2cc(F)cnc2c1C(=O)Nc1cnccc1OC1CN2CCC1CC2` (racemic) [I-O-6, (R,S)-2-amino-6-fluoro-N-(4-(quinuclidin-3-yloxy)pyridin-3-yl)pyrazolo[1,5-a]pyrimidine-3-carboxamide], for which the “Cisplatin Sensitization Assay” value is “+++ (Compounds with a Cisplatin sensitization value of <0.02 μM are marked with “+++.”)”.

In the case of `CN1CCOC2(CCN(c3ccncc3NC(=O)c3c(N)nn4cc(F)cnc34)CC2)C1` [I-N-183, 2-amino-6-fluoro-N-(4-(4-methyl-1-oxa-4,9-diazaspiro[5.5]undecan-9-yl)pyridin-3-yl)pyrazolo[1,5-a]pyrimidine-3-carboxamide], the “Cisplatin Sensitization Assay” value is on record as “+++ (Compounds with a Cisplatin sensitization value of <0.02 μM are marked with “+++.”)”.

With `Cn1cncc1-c1ccncc1NC(=O)c1c(N)nn2cc(F)cnc12` [I-C-56, 2-amino-6-fluoro-N-(4-(1-methyl-1H-imidazol-5-yl)pyridin-3-yl)pyrazolo[1,5-a]pyrimidine-3-carboxamide], the “Cisplatin Sensitization Assay” value is listed as “+++ (Compounds with a Cisplatin sensitization value of <0.02 μM are marked with “+++.”)”.

For `CNC(=O)C1CCN(c2c(F)cncc2NC(=O)c2c(N)nn3cc(F)cnc23)CC1` [I-G-33, 2-amino-6-fluoro-N-(5-fluoro-4-(4-(methylcarbamoyl)piperidin-1-yl)pyridin-3-yl)pyrazolo[1,5-a]pyrimidine-3-carboxamide], the “Cisplatin Sensitization Assay” value was “+++ (Compounds with a Cisplatin sensitization value of <0.02 μM are marked with “+++.”)”.

For `CS(=O)(=O)C1CCCN(c2ccncc2NC(=O)c2c(N)nn3cc(F)cnc23)C1` (centres unmarked) [I-N-221, 2-amino-6-fluoro-N-(4-(3-(methylsulfonyl)piperidin-1-yl)pyridin-3-yl)pyrazolo[1,5-a]pyrimidine-3-carboxamide], the “Cisplatin Sensitization Assay” value is “++ (Compounds with a Cisplatin sensitization value >0.02 μM but <0.2 μM are marked with “++.”)”.

With `Nc1nn2cc(F)cnc2c1C(=O)Nc1cnccc1N1CCN(C2COC2)C2CC21` (centres unmarked) [I-N-112, 2-amino-6-fluoro-N-(4-(5-(oxetan-3-yl)-2,5-diazabicyclo[4.1.0]heptan-2-yl)pyridin-3-yl)pyrazolo[1,5-a]pyrimidine-3-carboxamide], the “Cisplatin Sensitization Assay” value is “+ (Compounds with a Cisplatin sensitization value >0.2 μM but <5 μM are marked with “+.”)”.

Consider `Nc1nn2cc(F)cnc2c1C(=O)Nc1cnccc1N1CCC2(CCNC2)CC1` [I-N-255, N-(4-(2,8-diazaspiro[4.5]decan-8-yl)pyridin-3-yl)-2-amino-6-fluoropyrazolo[1,5-a]pyrimidine-3-carboxamide], for which the “Cisplatin Sensitization Assay” value was “++ (Compounds with a Cisplatin sensitization value >0.02 μM but <0.2 μM are marked with “++.”)”.

As to `Nc1nn2cc(Cl)cnc2c1C(=O)Nc1cnccc1N1CCC(N2CCCC2)CC1` [I-N-105, 2-amino-6-chloro-N-(4-(4-(pyrrolidin-1-yl)piperidin-1-yl)pyridin-3-yl)pyrazolo[1,5-a]pyrimidine-3-carboxamide], the “Cisplatin Sensitization Assay” value is “+++ (Compounds with a Cisplatin sensitization value of <0.02 μM are marked with “+++.”)”.

Regarding `CC(C)(C)Oc1ccncc1NC(=O)c1c(N)nn2cc(F)cnc12` [I-O-88, 2-amino-N-(4-(tert-butoxy)pyridin-3-yl)-6-fluoropyrazolo[1,5-a]pyrimidine-3-carboxamide], the “Cisplatin Sensitization Assay” value is listed as “+++ (Compounds with a Cisplatin sensitization value of <0.02 μM are marked with “+++.”)”.

In the case of `Nc1nn2cc(F)cnc2c1C(=O)Nc1cncc(F)c1N1CCC(C(=O)N2CC[C@H](N3CCCC3)C2)CC1` [I-G-58, (S)—N-(4-(4-([1,3′-bipyrrolidine]-1′-carbonyl)piperidin-1-yl)-5-fluoropyridin-3-yl)-2-amino-6-fluoropyrazolo[1,5-a]pyrimidine-3-carboxamide], the “Cisplatin Sensitization Assay” value is “+++ (Compounds with a Cisplatin sensitization value of <0.02 μM are marked with “+++.”)”.

In the case of `Cc1ncnn1-c1ccncc1NC(=O)c1c(N)nn2cc(F)cnc12` [I-N-162, 2-amino-6-fluoro-N-(4-(5-methyl-1H-1,2,4-triazol-1-yl)pyridin-3-yl)pyrazolo[1,5-a]pyrimidine-3-carboxamide], the “Cisplatin Sensitization Assay” value was “++ (Compounds with a Cisplatin sensitization value >0.02 μM but <0.2 μM are marked with “++.”)”.

As for `CN1CC[C@H](Oc2ccncc2NC(=O)c2c(N)nn3cc(Cl)cnc23)C1` [I-O-69, (S)-2-amino-6-chloro-N-(4-((1-methylpyrrolidin-3-yl)oxy)pyridin-3-yl)pyrazolo[1,5-a]pyrimidine-3-carboxamide], the “Cisplatin Sensitization Assay” value is reported as “++ (Compounds with a Cisplatin sensitization value >0.02 μM but <0.2 μM are marked with “++.”)”.

Consider `CN(C)CCOc1cc(C(F)(F)F)ncc1NC(=O)c1c(N)nn2cc(Cl)cnc12` [I-O-71, 2-amino-6-chloro-N-(4-(2-(dimethylamino)ethoxy)-6-(trifluoromethyl)pyridin-3-yl)pyrazolo[1,5-a]pyrimidine-3-carboxamide], for which the “Cisplatin Sensitization Assay” value is “+ (Compounds with a Cisplatin sensitization value >0.2 μM but <5 μM are marked with “+.”)”.

Take `CN1CCN(C(=O)N2CCN(c3c(F)cncc3NC(=O)c3c(N)nn4cc(F)cnc34)CC2)CC1` [I-N-140, 2-amino-6-fluoro-N-(5-fluoro-4-(4-(4-methylpiperazine-1-carbonyl)piperazin-1-yl)pyridin-3-yl)pyrazolo[1,5-a]pyrimidine-3-carboxamide]: the “Cisplatin Sensitization Assay” value is reported as “+++ (Compounds with a Cisplatin sensitization value of <0.02 μM are marked with “+++.”)”.

Regarding `Nc1nn2cc(F)cnc2c1C(=O)Nc1cncc(F)c1N1CCC(C(=O)O)CC1` [I-N-92, 1-(3-(2-amino-6-fluoropyrazolo[1,5-a]pyrimidine-3-carboxamido)-5-fluoropyridin-4-yl)piperidine-4-carboxylic acid], the “Cisplatin Sensitization Assay” value is “+ (Compounds with a Cisplatin sensitization value >0.2 μM but <5 μM are marked with “+.”)”.

Turning to `COC1(C)CN(C(=O)C2CCN(c3c(F)cncc3NC(=O)c3c(N)nn4cc(F)cnc34)CC2)C1` [I-G-75, 2-amino-6-fluoro-N-(5-fluoro-4-(4-(3-methoxy-3-methylazetidine-1-carbonyl)piperidin-1-yl)pyridin-3-yl)pyrazolo[1,5-a]pyrimidine-3-carboxamide], the “Cisplatin Sensitization Assay” value is on record as “+++ (Compounds with a Cisplatin sensitization value of <0.02 μM are marked with “+++.”)”.

Regarding `Nc1nn2cc(F)cnc2c1C(=O)Nc1cnccc1N1CCC(C(=O)N2CC3(COC3)C2)CC1` [I-G-88, N-(4-(4-(2-oxa-6-azaspiro[3.3]heptane-6-carbonyl)piperidin-1-yl)pyridin-3-yl)-2-amino-6-fluoropyrazolo[1,5-a]pyrimidine-3-carboxamide], the “Cisplatin Sensitization Assay” value is “+++ (Compounds with a Cisplatin sensitization value of <0.02 μM are marked with “+++.”)”.

For the molecule `Cc1ccncc1NC(=O)c1c(N)nn2cc(Cl)cnc12` [I-C-2, 2-amino-6-chloro-N-(4-methylpyridin-3-yl)pyrazolo[1,5-a]pyrimidine-3-carboxamide], the “Cisplatin Sensitization Assay” value was “++ (Compounds with a Cisplatin sensitization value >0.02 μM but <0.2 μM are marked with “++.”)”.

Consider `Cc1ccnnc1-c1ccncc1NC(=O)c1c(N)nn2cc(F)cnc12` [I-C-33, 2-amino-6-fluoro-N-(4-(4-methylpyridazin-3-yl)pyridin-3-yl)pyrazolo[1,5-a]pyrimidine-3-carboxamide], for which the “Cisplatin Sensitization Assay” value is “+ (Compounds with a Cisplatin sensitization value >0.2 μM but <5 μM are marked with “+.”)”.

On to `N#CCc1cnc2c(C(=O)Nc3cnccc3O[C@@H]3CCOC3)c(N)nn2c1` [I-O-31, (R)-2-amino-6-(cyanomethyl)-N-(4-((tetrahydrofuran-3-yl)oxy)pyridin-3-yl)pyrazolo[1,5-a]pyrimidine-3-carboxamide], for which the “Cisplatin Sensitization Assay” value is recorded as “+++ (Compounds with a Cisplatin sensitization value of <0.02 μM are marked with “+++.”)”.

On to `Nc1nn2cc(Cl)cnc2c1C(=O)Nc1cnccc1N1CCN(C2CC2)CC1` [I-N-64, 2-amino-6-chloro-N-(4-(4-cyclopropylpiperazin-1-yl)pyridin-3-yl)pyrazolo[1,5-a]pyrimidine-3-carboxamide], for which the “Cisplatin Sensitization Assay” value is recorded as “+++ (Compounds with a Cisplatin sensitization value of <0.02 μM are marked with “+++.”)”.

Consider `Nc1nn2cc(F)cnc2c1C(=O)Nc1cnccc1-c1cccnc1Cl` [I-C-37, 2-amino-N-(2-chloro-[3,4′-bipyridin]-3′-yl)-6-fluoropyrazolo[1,5-a]pyrimidine-3-carboxamide], for which the “Cisplatin Sensitization Assay” value was “+++ (Compounds with a Cisplatin sensitization value of <0.02 μM are marked with “+++.”)”.

The values are drawn from patent US11117900B2 (Vertex Pharmaceuticals Incorporated, priority 2012, dated 2021).
